Laboratory results as given in patent US20080200454A1, “CARBON-LINKED TETRAHYDRO-PYRAZOLO-PYRIDINE MODULATORS OF CATHEPSIN S” (priority 2007, published 2008).

biological target: Recombinant human cathepsin S (CatS) (Homo sapiens, UniProt P25774); test: Recombinant human cathepsin S (CatS) inhibition assay, fluorogenic substrate Z-Valine-Valine-Arginine-AMC; settings: not given;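 also: Baculovirus-expressed CatS in pH 5.0 sodium acetate buffer with DTT and NaCl, fluorescence read each minute over 20 min, inhibition derived from rate slope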
Sequence (P25774 115-331): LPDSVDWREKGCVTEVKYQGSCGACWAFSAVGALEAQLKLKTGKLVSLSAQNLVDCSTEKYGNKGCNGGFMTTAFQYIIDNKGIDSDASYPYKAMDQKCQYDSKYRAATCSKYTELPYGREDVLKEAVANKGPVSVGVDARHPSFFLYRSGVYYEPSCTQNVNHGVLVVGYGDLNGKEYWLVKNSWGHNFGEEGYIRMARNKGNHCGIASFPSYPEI

IC50	SMILES
40 nM	CS(=O)(=O)N1CCc2c(c(-c3ccc(Cl)c(C#Cc4ccc5c(c4)CN(C4CC4)CC5)c3)nn2CCCN2CCN(c3ccccc3)CC2)C1 [Example 280, 7-[(2-Chloro-5-{5-(methylsulfonyl)-1-[3-(4-phenylpiperazin-1-yl)propyl]-4,5,6,7-tetrahydro-1H-pyrazolo[4,3-c]pyridin-3-yl}phenyl)ethynyl]-2-cyclopropyl-1,2,3,4-tetrahydroisoquinoline]
60 nM	NC(=O)C(=O)N1CCc2c(c(-c3ccc(Cl)c(C#Cc4ccc(CNCc5ccc(Cl)cc5)cc4)c3)nn2C[C@@H](O)CN2CCOCC2)C1 [Example 253, (S)-2-[3-(4-Chloro-3-{4-[(4-chloro-benzylamino)-methyl]-phenylethynyl}-phenyl)-1-(2-hydroxy-3-morpholin-4-yl-propyl)-1,4,6,7-tetrahydro-pyrazolo[4,3-c]pyridin-5-yl]-2-oxo-acetamide]
110 nM	CC(C)N1CCc2ccc(C#Cc3cc(-c4nn(CCCN5CCOC[C@@H]5C)c5c4CN(S(C)(=O)=O)CC5)ccc3Cl)cc2C1 [Example 279, 7-({2-Chloro-5-[1-{3-[(3S)-3-methylmorpholin-4-yl]propyl}-5-(methylsulfonyl)-4,5,6,7-tetrahydro-1H-pyrazolo[4,3-c]pyridin-3-yl]phenyl}ethynyl)-2-(1-methylethyl)-1,2,3,4-tetrahydroisoquinoline]
20 nM	CS(=O)(=O)N1CCc2c(c(-c3ccc(Cl)c(CCc4ccc(CNCc5ccc(Cl)cc5)cc4)c3)nn2CCCN2CCN(c3ccccc3)CC2)C1 [Example 395, 1-{4-[2-(2-Chloro-5-{5-(methylsulfonyl)-1-[3-(4-phenylpiperazin-1-yl)propyl]-4,5,6,7-tetrahydro-1H-pyrazolo[4,3-c]pyridin-3-yl}phenyl)ethyl]phenyl}-N-[(4-chlorophenyl)methyl]methanamine]
2600 nM	COC(=O)Cc1cccc(C#Cc2cc(-c3nn(CCCN4CCOCC4)c4c3CN(S(C)(=O)=O)CC4)ccc2Cl)c1 [Example 11, (3-{2-Chloro-5-[5-methanesulfonyl-1-(3-morpholin-4-yl-propyl)-4,5,6,7-tetrahydro-1H-pyrazolo[4,3-c]pyridin-3-yl]-phenylethynyl}-phenyl)-acetic acid methyl ester]
60 nM	CS(=O)(=O)N1CCc2c(c(-c3ccc(C(F)(F)F)c(CCc4ccc(Cl)cc4)c3)nn2CC(O)CN2CCC(N3CCCC3=O)CC2)C1 (stereo not shown) [Example 146, 1-{1-[3-(3-{3-[2-(4-Chloro-phenyl)-ethyl]-4-trifluoromethyl-phenyl}-5-methanesulfonyl-4,5,6,7-tetrahydro-pyrazolo[4,3-c]pyridin-1-yl)-2-hydroxy-propyl]-piperidin-4-yl}-pyrrolidin-2-one]
150 nM	CC(C)(C)OC(=O)NC1CCN(CC(O)Cn2nc(-c3ccc(C(F)(F)F)c(C#Cc4ccc(Cl)cc4)c3)c3c2CCN(S(C)(=O)=O)C3)CC1 (stereo not shown) [Example 121, [1-(3-{3-[3-(4-Chloro-phenylethynyl)-4-trifluoromethyl-phenyl]-5-methanesulfonyl-4,5,6,7-tetrahydro-pyrazolo[4,3-c]pyridin-1-yl}-2-hydroxy-propyl)-piperidin-4-yl]-carbamic acid tert-butyl ester]
9750 nM	CS(=O)(=O)N1CCc2c(c(-c3ccc(Cl)c(C#CCCc4ccccc4)c3)nn2CCCN2CCOCC2)C1 [Example 42, 3-[4-Chloro-3-(4-phenyl-but-1-ynyl)-phenyl]-5-methanesulfonyl-1-(3-morpholin-4-yl-propyl)-4,5,6,7-tetrahydro-1H-pyrazolo[4,3-c]pyridine]

same assay, conditions: CatS IC50

SMILES	IC50
CS(=O)(=O)N1CCc2c(c(-c3ccc(Cl)c(C#Cc4ccc(CNCc5ccsc5)cc4)c3)nn2CCCN2CCOCC2)C1 [Example 422, 1-[4-({2-Chloro-5-[5-(methylsulfonyl)-1-(3-morpholin-4-ylpropyl)-4,5,6,7-tetrahydro-1H-pyrazolo[4,3-c]pyridin-3-yl]phenyl}ethynyl)phenyl]-N-(3-thienylmethyl)methanamine]	170 nM
CS(=O)(=O)N1CCc2c(c(-c3ccc(Cl)c(C#Cc4ccc5c(c4)CN[C@@H](C(=O)N4CCCC4)C5)c3)nn2CCCN2CCOCC2)C1 [Example 196, (3R)-7-({2-Chloro-5-[5-(methylsulfonyl)-1-(3-morpholin-4-ylpropyl)-4,5,6,7-tetrahydro-1H-pyrazolo[4,3-c]pyridin-3-yl]phenyl}ethynyl)-3-(pyrrolidin-1-ylcarbonyl)-1,2,3,4-tetrahydroisoquinoline]	650 nM
C[C@H]1COCCN1CCCn1nc(-c2ccc(Cl)c(C#Cc3ccc4c(c3)CN(CC(F)(F)F)CC4)c2)c2c1CCN(S(C)(=O)=O)C2 [Example 501, 7-({2-Chloro-5-[1-{3-[(3S)-3-methylmorpholin-4-yl]propyl}-5-(methylsulfonyl)-4,5,6,7-tetrahydro-1H-pyrazolo[4,3-c]pyridin-3-yl]phenyl}ethynyl)-2-(2,2,2-trifluoroethyl)-1,2,3,4-tetrahydroisoquinoline]	750 nM
C[C@@H]1COCCN1CCCn1nc(-c2ccc(Cl)c(C#Cc3ccc(Cl)c(CNCCCO)c3)c2)c2c1CCN(C(N)=O)C2 [Example 222, 3-(4-Chloro-3-{4-chloro-3-[(3-hydroxy-propylamino)-methyl]-phenylethynyl}-phenyl)-1-[3-(3-methyl-morpholin-4-yl)-propyl]-1,4,6,7-tetrahydro-pyrazolo[4,3-c]pyridine-5-carboxylic acid amide]	20 nM
CC(C)(C)OC(=O)N1CCC(C2CCN(C[C@H](O)Cn3nc(-c4ccc(Cl)c(C#Cc5cccnc5)c4)c4c3CCN(S(C)(=O)=O)C4)CC2)CC1 [Example 235, 1,1-Dimethylethyl 1′-[(2S)-3-{3-[4-chloro-3-(pyridin-3-ylethynyl)phenyl]-5-(methylsulfonyl)-4,5,6,7-tetrahydro-1H-pyrazolo[4,3-c]pyridin-1-yl}-2-hydroxypropyl]-4,4′-bipiperidine-1-carboxylate]	330 nM
NC(=O)N1CCc2c(c(-c3ccc(Cl)c(C#Cc4ccc(Cl)c(CNC5CC5)c4)c3)nn2CCCN2CCCCC2)C1 [Example 596, 3-[4-Chloro-3-({4-chloro-3-[(cyclopropylamino)methyl]phenyl}ethynyl)phenyl]-1-(3-piperidin-1-ylpropyl)-1,4,6,7-tetrahydro-5H-pyrazolo[4,3-c]pyridine-5-carboxamide]	30 nM
CC(C)(C)C1CCN(CCCn2nc(-c3ccc(Cl)c(C#Cc4ccc(CNCc5ccc(Cl)cc5)cc4)c3)c3c2CCN(S(C)(=O)=O)C3)CC1 [Example 372, 1-[4-({2-Chloro-5-[1-{3-[4-(1,1-dimethylethyl)piperidin-1-yl]propyl}-5-(methylsulfonyl)-4,5,6,7-tetrahydro-1H-pyrazolo[4,3-c]pyridin-3-yl]phenyl}ethynyl)phenyl]-N-[(4-chlorophenyl)methyl]methanamine]	60 nM
CS(=O)(=O)N1CCc2c(c(-c3ccc(Cl)c(C#Cc4cccc(CNCc5ccc(Cl)cc5)c4)c3)nn2CCCN2CCN(c3ccccc3)CC2)C1 [Example 446, 1-{3-[(2-Chloro-5-{5-(methylsulfonyl)-1-[3-(4-phenylpiperazin-1-yl)propyl]-4,5,6,7-tetrahydro-1H-pyrazolo[4,3-c]pyridin-3-yl}phenyl)ethynyl]phenyl}-N-[(4-chlorophenyl)methyl]methanamine]	70 nM
CC(C)(C)OC(=O)N1CCC(C2CCN(C[C@H](O)Cn3nc(-c4ccc(Cl)c(C#Cc5ccccn5)c4)c4c3CCN(S(C)(=O)=O)C4)CC2)CC1 [Example 234, 1,1-Dimethylethyl 1′-[(2S)-3-{3-[4-chloro-3-(pyridin-2-ylethynyl)phenyl]-5-(methylsulfonyl)-4,5,6,7-tetrahydro-1H-pyrazolo[4,3-c]pyridin-1-yl}-2-hydroxypropyl]-4,4′-bipiperidine-1-carboxylate]	280 nM
CC(C)(C)OC(=O)NC1CCN(CCCn2nc(-c3ccc(Cl)c(C#Cc4ccc(CNCc5ccc(Cl)cc5)cc4)c3)c3c2CCN(S(C)(=O)=O)C3)CC1 [Example 329, 1,1-Dimethylethyl (1-{3-[3-(4-chloro-3-{[4-({[(4-chlorophenyl)methyl]amino}methyl)phenyl]ethynyl}phenyl)-5-(methylsulfonyl)-4,5,6,7-tetrahydro-1H-pyrazolo[4,3-c]pyridin-1-yl]propyl}piperidin-4-yl)carbamate]	30 nM
CS(=O)(=O)N1CCc2c(c(-c3ccc(Cl)c(C#Cc4ccc(CN[C@H](CO)c5ccccc5)cc4)c3)nn2CCCN2CCOCC2)C1 [Example 342, (2S)-2-({[4-({2-Chloro-5-[5-(methylsulfonyl)-1-(3-morpholin-4-ylpropyl)-4,5,6,7-tetrahydro-1H-pyrazolo[4,3-c]pyridin-3-yl]phenyl}ethynyl)phenyl]methyl}amino)-2-phenylethanol]	310 nM
CS(=O)(=O)N1CCc2c(c(-c3ccc(Cl)c(C#Cc4ccc(NCCc5ccccc5)cc4)c3)nn2CCCN2CCOCC2)C1 [Example 327, 4-({2-Chloro-5-[5-(methylsulfonyl)-1-(3-morpholin-4-ylpropyl)-4,5,6,7-tetrahydro-1H-pyrazolo[4,3-c]pyridin-3-yl]phenyl}ethynyl)-N-(2-phenylethyl)aniline]	760 nM
CC1COCCN1CCCn1nc(-c2ccc(Cl)c(C#Cc3ccc(Cl)c(CNCc4ccccc4)c3)c2)c2c1CCN(C(N)=O)C2 (stereo in doubt) [Example 224, 3-{4-Chloro-3-[(4-chloro-3-{[(phenylmethyl)amino]methyl}phenyl)ethynyl]phenyl}-1-{3-[(3S)-3-methylmorpholin-4-yl]propyl}-1,4,6,7-tetrahydro-5H-pyrazolo[4,3-c]pyridine-5-carboxamide]	20 nM

same assay, conditions: read-out: CatS IC50; Table 4; average of results obtained

IC50	SMILES
630 nM	CC(C)(C)OC(=O)N1Cc2cc(C#Cc3cc(-c4nn(CCCN5CCOCC5)c5c4CN(S(C)(=O)=O)CC5)ccc3Cl)ccc2C[C@H]1C(=O)O [Example 464, (3S)-7-({2-Chloro-5-[5-(methylsulfonyl)-1-(3-morpholin-4-ylpropyl)-4,5,6,7-tetrahydro-1H-pyrazolo[4,3-c]pyridin-3-yl]phenyl}ethynyl)-2-{[(1,1-dimethylethyl)oxy]carbonyl}-1,2,3,4-tetrahydroisoquinoline-3-carboxylic acid]
